Laboratory results from US11135234B2, “Effective aminoglycoside antibiotic for multidrug-resistant bacteria” (MICROBIAL CHEMISTRY RESEARCH FOUNDATION, priority 2015, dated 2021).
In brackets after ≈: the same amount, converted by molar mass.

Columns and labels:
P. aeruginosa MSC01035 = assay: MIC, agar plate dilution method, P. aeruginosa MSC01035; type: cell-based, Pseudomonas aeruginosa; details: P. aeruginosa MSC01035, ABK-resistant; for MIC: Pseudomonas aeruginosa, read-out: minimal inhibitory concentration (MIC)
Method in brief: (§1)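 Japan Society of Chemotherapy agar dilution protocol used. MIC reported in μg/mL.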

E. faecium ATCC19434 = assay: MIC, agar plate dilution method, E. faecium ATCC19434; type: cell-based, Enterococcus faecium; details: for MIC: Enterococcus faecium, ATCC19434, E. faecium ATCC19434, read-out: minimal inhibitory concentration (MIC); for minimal inhibitory concentration (MIC): E. faecium ATCC19434
Method in brief: as §1

[1] = test system: K. pneumoniae ATCC BAA-1705; assay: MIC, agar plate dilution method, K. pneumoniae ATCC BAA-1705; type: cell-based, Klebsiella pneumoniae; details: for MIC: Klebsiella pneumoniae, ATCCBAA1705, K. pneumoniae ATCC BAA-1705, KPC-producing strain, read-out: minimal inhibitory concentration (MIC); for minimal inhibitory concentration (MIC): K. pneumoniae ATCC BAA-1705, KPC-producing strain
Method in brief: as §1

P. aeruginosa PAO1/GN315 = assay: MIC, agar plate dilution method, P. aeruginosa PAO1/GN315; type: cell-based, Pseudomonas aeruginosa; details: for MIC: Pseudomonas aeruginosa, read-out: minimal inhibitory concentration (MIC), P. aeruginosa PAO1/GN315, AMK-resistant; for minimal inhibitory concentration (MIC): P. aeruginosa PAO1/GN315, AMK-resistant
Method in brief: as §1

S. marcescens GN6944 = assay: MIC, agar plate dilution method, S. marcescens GN6944; type: cell-based, Serratia marcescens; details: S. marcescens GN6944, GM-resistant; for MIC: Serratia marcescens, read-out: minimal inhibitory concentration (MIC)
Method in brief: as §1

[2] = test system: A. baumannii ATCC BAA-1710; assay: MIC, agar plate dilution method, A. baumannii ATCC BAA-1710; type: cell-based, Acinetobacter baumannii; details: for MIC: Acinetobacter baumannii, ATCCBAA1710, A. baumannii ATCC BAA-1710, MDRA, read-out: minimal inhibitory concentration (MIC); for minimal inhibitory concentration (MIC): A. baumannii ATCC BAA-1710, MDRA
Method in brief: as §1

S. aureus MF490 = assay: MIC, agar plate dilution method, S. aureus MF490; type: cell-based, Staphylococcus aureus; details: for MIC: Staphylococcus aureus, MRSA, read-out: minimal inhibitory concentration (MIC); for minimal inhibitory concentration (MIC): S. aureus MF490, MRSA
Method in brief: as §1

S. aureus RN4220 = assay: MIC, agar plate dilution method, S. aureus RN4220; type: cell-based, Staphylococcus aureus; details: for MIC: Staphylococcus aureus, RN4220, S. aureus RN4220, Sensitive bacterium, read-out: minimal inhibitory concentration (MIC); for minimal inhibitory concentration (MIC): S. aureus RN4220, Sensitive bacterium
Method in brief: as §1

S. marcescens TH-0447 = assay: MIC, agar plate dilution method, S. marcescens TH-0447; type: cell-based, Serratia marcescens; details: for MIC: Serratia marcescens, TH0447, S. marcescens TH-0447, AMK-resistant, read-out: minimal inhibitory concentration (MIC); for minimal inhibitory concentration (MIC): S. marcescens TH-0447, AMK-resistant
Method in brief: as §1

P. aeruginosa PAO1 = assay: MIC, agar plate dilution method, P. aeruginosa PAO1; type: cell-based, Pseudomonas aeruginosa; details: for MIC: Pseudomonas aeruginosa, PAO1, P. aeruginosa PAO1, Sensitive bacterium, read-out: minimal inhibitory concentration (MIC); for minimal inhibitory concentration (MIC): P. aeruginosa PAO1, Sensitive bacterium
Method in brief: as §1

P. aeruginosa MSC17707 = assay: MIC, agar plate dilution method, P. aeruginosa MSC17707; type: cell-based, Pseudomonas aeruginosa; details: for MIC: Pseudomonas aeruginosa, MSC17707, P. aeruginosa MSC17707, AMK-resistant, read-out: minimal inhibitory concentration (MIC); for minimal inhibitory concentration (MIC): P. aeruginosa MSC17707, AMK-resistant
Method in brief: as §1

S. aureus RN4220/pMS520 = assay: MIC, agar plate dilution method, S. aureus RN4220/pMS520; type: cell-based, Staphylococcus aureus; details: for MIC: Staphylococcus aureus, MRSA, read-out: minimal inhibitory concentration (MIC), S. aureus RN4220/pMS520, MRSA; for minimal inhibitory concentration (MIC): S. aureus RN4220/pMS520, MRSA
Method in brief: as §1

[3] = test system: K. pneumoniae ATCC BAA-2146; assay: MIC, agar plate dilution method, K. pneumoniae ATCC BAA-2146; type: cell-based, Klebsiella pneumoniae; details: for MIC: Klebsiella pneumoniae, ATCCBAA2146, K. pneumoniae ATCC BAA-2146, NDM-producing strain, read-out: minimal inhibitory concentration (MIC); for minimal inhibitory concentration (MIC): K. pneumoniae ATCC BAA-2146, NDM-producing strain
Method in brief: as §1

E. coli JM109/pMW218 = assay: MIC, agar plate dilution method, E. coli JM109/pMW218; type: cell-based, Escherichia coli; details: for MIC: Escherichia coli, JM109/PMW218, E. coli JM109/pMW218, Sensitive bacterium, read-out: minimal inhibitory concentration (MIC); for minimal inhibitory concentration (MIC): E. coli JM109/pMW218, Sensitive bacterium
Method in brief: as §1

In the case of `CNC1C(O[C@H]2OC(CO)[C@@H](N[C@H]3CC[C@@H](N)CC3)[C@H](O)C2O)O[C@H]2CC(N)[C@@H](O[C@@H]3C(N)C[C@@H](N)C(O)[C@H]3O)OC2C1O` (stereo partly drawn) [Compound A4-f, 4″-N-(cis-1,4-4-aminocyclohexyl)apramycin], the MIC (P. aeruginosa MSC01035) is reported as 16 µg/mL (≈ 25.1 µM), the MIC (E. faecium ATCC19434) is reported as 32 µg/mL (≈ 50.3 µM) and the MIC [1] is reported as 2 µg/mL (≈ 3.14 µM). The MIC (P. aeruginosa PAO1/GN315) was 16 µg/mL (≈ 25.1 µM), the MIC (S. marcescens GN6944) was 8 µg/mL (≈ 12.6 µM) and the MIC [2] was 32 µg/mL (≈ 50.3 µM). It also gave an MIC (S. aureus MF490) of 8 µg/mL (≈ 12.6 µM), an MIC (S. aureus RN4220) of 4 µg/mL (≈ 6.28 µM) and an MIC (S. marcescens TH-0447) of 16 µg/mL (≈ 25.1 µM). It also gave an MIC (P. aeruginosa PAO1) of 16 µg/mL (≈ 25.1 µM), an MIC (P. aeruginosa MSC17707) of 16 µg/mL (≈ 25.1 µM) and an MIC (S. aureus RN4220/pMS520) of 4 µg/mL (≈ 6.28 µM). The MIC [3] was 1 µg/mL (≈ 1.57 µM) and the MIC (E. coli JM109/pMW218) was 1 µg/mL (≈ 1.57 µM).

In the case of `CNC1C(OC2OC(CO)C(N)C(O)C2O)OC2CC(N)C(OC3C(N)CC(N)C(O)C3O)OC2C1O` (stereo not shown) [Compound I3, 2″,3″-diepiapramycin], the “minimal inhibitory concentration (MIC)” value (P. aeruginosa MSC01035) is reported as 64 µg/mL (≈ 119 µM), the “minimal inhibitory concentration (MIC)” value (E. faecium ATCC19434) is reported as 32 µg/mL (≈ 59.3 µM) and the “minimal inhibitory concentration (MIC)” value [1] is reported as 4 µg/mL (≈ 7.41 µM). The “minimal inhibitory concentration (MIC)” value (P. aeruginosa PAO1/GN315) was 32 µg/mL (≈ 59.3 µM), the “minimal inhibitory concentration (MIC)” value (S. marcescens GN6944) was 16 µg/mL (≈ 29.7 µM) and the “minimal inhibitory concentration (MIC)” value [2] was 16 µg/mL (≈ 29.7 µM). The “minimal inhibitory concentration (MIC)” value (S. aureus MF490) was 32 µg/mL (≈ 59.3 µM), the “minimal inhibitory concentration (MIC)” value (S. aureus RN4220) was 8 µg/mL (≈ 14.8 µM) and the “minimal inhibitory concentration (MIC)” value (S. marcescens TH-0447) was 32 µg/mL (≈ 59.3 µM). For the same compound, the “minimal inhibitory concentration (MIC)” value (P. aeruginosa PAO1) was 16 µg/mL (≈ 29.7 µM), the “minimal inhibitory concentration (MIC)” value (P. aeruginosa MSC17707) was 32 µg/mL (≈ 59.3 µM) and the “minimal inhibitory concentration (MIC)” value (S. aureus RN4220/pMS520) was 8 µg/mL (≈ 14.8 µM). For the same compound, the “minimal inhibitory concentration (MIC)” value [3] was 4 µg/mL (≈ 7.41 µM) and the “minimal inhibitory concentration (MIC)” value (E. coli JM109/pMW218) was 4 µg/mL (≈ 7.41 µM).

With `CNC1C(O[C@H]2OC(CO)[C@@H](NC(=O)[C@H](O)CN)[C@H](O)C2O)O[C@H]2C[C@H](N)[C@@H](O[C@@H]3C(N)C[C@@H](N)C(O)[C@H]3O)OC2C1O` (stereo partly drawn) [Compound V1-s, 5-epi-4″-N-(D-isoseryl)apramycin] the MIC (P. aeruginosa MSC01035) was 4 µg/mL (≈ 6.38 µM), the MIC (E. faecium ATCC19434) was 16 µg/mL (≈ 25.5 µM) and the MIC [1] was 0.5 µg/mL (≈ 0.798 µM). For the same compound, the MIC (P. aeruginosa PAO1/GN315) was 2 µg/mL (≈ 3.19 µM), the MIC (S. marcescens GN6944) was 4 µg/mL (≈ 6.38 µM) and the MIC [2] was 4 µg/mL (≈ 6.38 µM). The MIC (S. aureus MF490) was 4 µg/mL (≈ 6.38 µM), the MIC (S. aureus RN4220) was 1 µg/mL (≈ 1.6 µM) and the MIC (S. marcescens TH-0447) was 8 µg/mL (≈ 12.8 µM). The MIC (P. aeruginosa PAO1) was 1 µg/mL (≈ 1.6 µM), the MIC (P. aeruginosa MSC17707) was 2 µg/mL (≈ 3.19 µM) and the MIC (S. aureus RN4220/pMS520) was 1 µg/mL (≈ 1.6 µM). For the same compound, the MIC [3] was 1 µg/mL (≈ 1.6 µM) and the MIC (E. coli JM109/pMW218) was 0.5 µg/mL (≈ 0.798 µM).

In the case of `CNC1C(OC2OC(CO)C(N)CC2O)OC2CC(N)C(OC3C(N)CC(N)C(O)C3N)OC2C1O` (stereo not shown) [Compound N9, 5-amino-5,3″-dideoxy-5-epiapramycin], the “minimal inhibitory concentration (MIC)” value (P. aeruginosa MSC01035) is reported as 8 µg/mL (≈ 15.3 µM), the “minimal inhibitory concentration (MIC)” value (E. faecium ATCC19434) is reported as 16 µg/mL (≈ 30.6 µM) and the “minimal inhibitory concentration (MIC)” value [1] is reported as 2 µg/mL (≈ 3.83 µM). The “minimal inhibitory concentration (MIC)” value (P. aeruginosa PAO1/GN315) was 4 µg/mL (≈ 7.65 µM), the “minimal inhibitory concentration (MIC)” value (S. marcescens GN6944) was 8 µg/mL (≈ 15.3 µM) and the “minimal inhibitory concentration (MIC)” value [2] was 8 µg/mL (≈ 15.3 µM). For the same compound, the “minimal inhibitory concentration (MIC)” value (S. aureus MF490) was 8 µg/mL (≈ 15.3 µM), the “minimal inhibitory concentration (MIC)” value (S. aureus RN4220) was 2 µg/mL (≈ 3.83 µM) and the “minimal inhibitory concentration (MIC)” value (S. marcescens TH-0447) was 8 µg/mL (≈ 15.3 µM). For the same compound, the “minimal inhibitory concentration (MIC)” value (P. aeruginosa PAO1) was 4 µg/mL (≈ 7.65 µM), the “minimal inhibitory concentration (MIC)” value (P. aeruginosa MSC17707) was 8 µg/mL (≈ 15.3 µM) and the “minimal inhibitory concentration (MIC)” value (S. aureus RN4220/pMS520) was 2 µg/mL (≈ 3.83 µM). For the same compound, the “minimal inhibitory concentration (MIC)” value [3] was 1 µg/mL (≈ 1.91 µM) and the “minimal inhibitory concentration (MIC)” value (E. coli JM109/pMW218) was 1 µg/mL (≈ 1.91 µM).

In the case of `CN[C@@H]1[C@@H](O[C@H]2O[C@H](CO)[C@@H](N)[C@@H](O)[C@H]2O)O[C@H]2C[C@@H](N)[C@@H](O[C@H]3[C@@H](O)[C@@H](O)[C@H](N)C[C@@H]3N)O[C@@H]2[C@@H]1O` [Compound P4, 5,3″-diepiapramycin], the “minimal inhibitory concentration (MIC)” value (P. aeruginosa MSC01035) is reported as 8 µg/mL (≈ 14.8 µM), the “minimal inhibitory concentration (MIC)” value (E. faecium ATCC19434) is reported as 16 µg/mL (≈ 29.7 µM) and the “minimal inhibitory concentration (MIC)” value [1] is reported as 2 µg/mL (≈ 3.71 µM). The “minimal inhibitory concentration (MIC)” value (P. aeruginosa PAO1/GN315) was 4 µg/mL (≈ 7.41 µM), the “minimal inhibitory concentration (MIC)” value (S. marcescens GN6944) was 8 µg/mL (≈ 14.8 µM) and the “minimal inhibitory concentration (MIC)” value [2] was 8 µg/mL (≈ 14.8 µM). For the same compound, the “minimal inhibitory concentration (MIC)” value (S. aureus MF490) was 4 µg/mL (≈ 7.41 µM), the “minimal inhibitory concentration (MIC)” value (S. aureus RN4220) was 2 µg/mL (≈ 3.71 µM) and the “minimal inhibitory concentration (MIC)” value (S. marcescens TH-0447) was 8 µg/mL (≈ 14.8 µM). For the same compound, the “minimal inhibitory concentration (MIC)” value (P. aeruginosa PAO1) was 4 µg/mL (≈ 7.41 µM), the “minimal inhibitory concentration (MIC)” value (P. aeruginosa MSC17707) was 4 µg/mL (≈ 7.41 µM) and the “minimal inhibitory concentration (MIC)” value (S. aureus RN4220/pMS520) was 2 µg/mL (≈ 3.71 µM). For the same compound, the “minimal inhibitory concentration (MIC)” value [3] was 2 µg/mL (≈ 3.71 µM) and the “minimal inhibitory concentration (MIC)” value (E. coli JM109/pMW218) was 2 µg/mL (≈ 3.71 µM).
